Measured values from US12213481B1, “4,4′-[(2-hydroxypropane-1,3-diyl)bis(oxy)]dibenzaldehyde as an eco-friendly insecticidal agent against Spodoptera littoralis (boisd.)” (KING FAISAL UNIVERSITY, priority 2023, dated 2025).
In brackets after ≈: the same amount, converted by molar mass. Where two headings read alike, the source gives them in different places.

What was measured:
aquatic insects = conditions: cited from earlier work
[1] = system: Spodoptera littoralis larvae (2nd and 4th instars, laboratory strain of cotton leafworm); assay: Insecticidal leaf dip bioassay screening; conditions: for LC50: Spodoptera littoralis, in Gossypium hirsutum, foliar, 72 h; for Toxicity index %: fenoxycarb's LC50/compound's LC50 * 100
Method: (§1) Five concentrations (200, 100, 50, 25, 12.5 ppm) were designed for this synthetic compound and the reference fenoxycarb's compound as the dynamic ingredients based on ppm via diluting the commercial formulation.
(§2) In this experiment, the synthetic compound was tested for its insecticidal bioactivity using the industry-standard leaf dip bioassay techniques. […] Until usage, the stocks were kept in a refrigerator. The target substance test results were noted & the concentrations needed to destroy 50% (LC50) of S. littoralis larvae were calculated. The target compound was employed in five different concentrations, & 0.1% Tween 80 was employed as a surfactant. Castor bean leaf discs (nine centimeters in diameter) were dipped in the concentration under test for ten seconds, then fed to 2th & 4th larvae, which were roughly the same size and housed in glass jars (five pound). Each action carried out 3 times with ten larvae each. The mortality equalized via Abbott's formula. Calculations of mortality setback line were measurably rummage via probity analysis. Harmfulness index was strongminded via sun equations. The mortality results of larval insect were estimated through employing probit analysis through a statistics (LDP-line) equation which estimate the LC50 values with 95% fiducially limits of lower, upper confidence limit and slope.

[2] = system: Spodoptera littoralis larvae (2nd and 4th instars, laboratory strain of cotton leafworm); conditions: in vivo
Method: as §1, §2

[3] = read-out: LC50 (mg/L) at 95%, 2nd instar larvae, after 72 hours of treatment, leaf dip
[4] = read-out: LC50 (mg/L) at 95%, 4th instar larvae, after 72 hours of treatment, leaf dip

Row | Structure (SMILES) | LC50 (aquatic insects) [µg/mL] | LC50 [1, 3] [mg/L] | LC50 [1, 4] [mg/L] | LC50 (mg/L) at 95% [2] | Toxicity index % ([1]; 2nd instar larvae, 72 hours) [%] | Toxicity index % ([1]; 4th instar larvae, 72 hours) [%] | activity against Spodoptera littoralis (in words) ([1]; compared with the reference insecticide Fenoxycarb, 72 hours)
1 | CCc1ccc(C(=O)NN(C(=O)c2cc(C)cc(C)c2)C(C)(C)C)cc1 [tebufenozide] | 100 to 1000 |  |  |  |  |  | 
2 | CCOC(=O)NCCOc1ccc(Oc2ccccc2)cc1 [fenoxycarb, reference compound] |  | 5.94 (≈ 19.7 µM) | 59.9 (≈ 199 µM) |  |  |  | 
3 | O=Cc1ccc(OCC(O)COc2ccc(C=O)cc2)cc1 [Compound 1, 4,4′-[(2-hydroxypropane-1,3-diyl)bis(oxy)]dibenzaldehyde] |  | 25.6 (≈ 85.3 µM) | ~86.1 (≈ 287 µM) | about 25.62 mg/L | 22.93 | 69.54 | active against Spodoptera littoralis
